Tests used:
[1] = cited from earlier work
[2] = tested on: GCB cell lines (WSU-DLCL2, Farage, KARPAS-422, and SU-DHL-5); assay: Cell viability by ATP luminescence-based assay, GCB cell lines; conditions: 6 days; 1.0 μM EPZ-6438, 0.1 μM or 1.0 μM CPI-1205; mutant and wild type GCB cell lines
Procedure: (§1) Cell viability was determined based on the amount of ATP quantified by a luminescence-based assay.

[3] = tested on: ABC cell lines (SU-DHL-2 and OCI-LY3); assay: Cell viability by ATP luminescence-based assay, ABC cell lines; conditions: 6 days, 1.0 μM EPZ-6438, 0.1 μM or 1.0 μM CPI-1205, wild type EZH2
Procedure: as §1

[4] = tested on: H3K27Me3 in GCB (WSU-DLCL2, Farage, KARPAS-422, SU-DHL-5) and ABC (SU-DHL-2, OCI-LY3) DLBCL cell lines; assay: H3K27Me3 levels by Western blot in GCB and ABC DLBCL cell lines, two EZH2 inhibitors; format: cell-based; conditions: 6 days; 0.1 or 1.0 μM; all GCB and ABC cell lines tested

## CCN(c1cc(-c2ccc(CN3CCOCC3)cc2)cc(C(=O)NCc2c(C)cc(C)[nH]c2=O)c1C)C1CCOCC1 [tazemetostat]
[1]; twice daily (BID) or three times daily (TID) for 28-day cycles, subjects with R/R B-cell non-Hodgkin lymphoma or an advanced solid tumor
  recommended phase II dose: 800 mg
[1]; twice daily, human subjects, R/R B-cell lymphoma, 28-day cycles
  maximum tolerated dose (MTD): 800 milligrams

## COc1cc(C)[nH]c(=O)c1CNC(=O)c1c(C)n([C@H](C)C2CCN(CC(F)(F)F)CC2)c2ccccc12 [CPI-1205]
[2]
  cell viability (ATP): decreased cell viability
[3]
  cell viability (ATP): resistant
[4]
  H3K27Me3 levels (Western blot): decreased H2K27Me3 levels
